According to publication PMC12028158, “Synthesis and In Vitro Evaluation of the Anticancer Effect of Novel Phosphonium Vindoline Derivatives” (International Journal of Molecular Sciences, 2025):
Where two headings read alike, the source gives them in different places.

Experiments:
Assay type in all cases: cell-based
MCF7 [1] = assay: NCI60 five-dose screen; conditions: Homo sapiens
NCI/ADR-RES = assay: NCI60 one-dose screen; conditions: Homo sapiens, read-out: Growth percent
SN12C = assay: NCI60 one-dose screen; conditions: Homo sapiens, read-out: Growth percent
MCF7 [2] = assay: NCI60 one-dose screen; conditions: Homo sapiens
CAKI-1 = assay: NCI60 five-dose screen; conditions: Homo sapiens
[3] = test system: 60 human tumor cell lines (NCI60); assay: NCI60 five-dose screen, overall mean; conditions: read-out: GI50 Mean, mean over all 60 human cancer cell lines
HS 578T = assay: NCI60 five-dose screen; conditions: Homo sapiens
NCI-H226 [4] = assay: NCI60 one-dose screen; conditions: Homo sapiens
HCT-116 [5] = assay: NCI60 one-dose screen; conditions: Homo sapiens
UACC-62 [6] = assay: NCI60 one-dose screen; conditions: Homo sapiens
UACC-257 = assay: NCI60 five-dose screen; conditions: Homo sapiens
NCI-H23 = assay: NCI60 five-dose screen; conditions: Homo sapiens
UO-31 = assay: NCI60 one-dose screen; conditions: Homo sapiens
SR = assay: NCI60 five-dose screen; conditions: Homo sapiens
HCT-116 [7] = assay: NCI60 five-dose screen; conditions: Homo sapiens
NCI-H226 [8] = assay: NCI60 five-dose screen; conditions: Homo sapiens
NCI-H322M = assay: NCI60 one-dose screen; conditions: Homo sapiens, read-out: Growth percent
UACC-62 [9] = assay: NCI60 five-dose screen; conditions: Homo sapiens
SK-MEL-28 = assay: NCI60 five-dose screen; conditions: Homo sapiens
Prostate Cancer panel = assay: NCI60 five-dose screen, panel mean; conditions: Homo sapiens
NCI-H460 = assay: NCI60 five-dose screen; conditions: Homo sapiens
K-562 = assay: NCI60 one-dose screen; conditions: Homo sapiens
DU-145 = assay: NCI60 five-dose screen; conditions: Homo sapiens
Leukemia panel = assay: NCI60 five-dose screen, panel mean; conditions: Homo sapiens
HL-60(TB) = assay: NCI60 one-dose screen; conditions: Homo sapiens
SK-OV-3 = assay: NCI60 five-dose screen; conditions: Homo sapiens
RXF 393 = assay: NCI60 five-dose screen; conditions: Homo sapiens
A549/ATCC = assay: NCI60 one-dose screen; conditions: Homo sapiens
HOP-62 = assay: NCI60 one-dose screen; conditions: Homo sapiens
SK-MEL-5 = assay: NCI60 five-dose screen; conditions: Homo sapiens
OVCAR-5 = assay: NCI60 one-dose screen; conditions: Homo sapiens
M14 = assay: NCI60 one-dose screen; conditions: Homo sapiens
U251 = assay: NCI60 one-dose screen; conditions: Homo sapiens
Ovarian Cancer panel = assay: NCI60 five-dose screen, panel mean; conditions: Homo sapiens
HCT-15 = assay: NCI60 five-dose screen; conditions: Homo sapiens
[10] = NCI-H226, read-out: Growth percent
[11] = HCT-116, read-out: Growth percent
[12] = UACC-62, read-out: Growth percent
[13] = UO-31, read-out: Growth percent
[14] = HL-60, read-out: Growth percent
[15] = HOP-62, read-out: Growth percent
[16] = OVCAR-5, read-out: Growth percent
[17] = U-251, read-out: Growth percent

CC[C@]12C=CCN3CC[C@@]4(c5ccc(OC)cc5N(C)[C@H]4[C@@](O)(C(=O)OC)[C@@H]1OC(=O)CCCC[P+](C1CCCCC1)(C1CCCCC1)C1CCCCC1)[C@@H]32 [10d]
GI50 (MCF7 [1]; MCF7): 1.05 µM
activity at 10 µM (NCI/ADR-RES): 96.7%
activity at 10 µM (SN12C): -57.9%
activity at 10 µM (MCF7 [2]; MCF7, read-out: Growth percent): -64.2%
GI50 (CAKI-1; CAKI-1): 16.7 µM
GI50 [3]: 4.29 µM
GI50 (HS 578T; Hs-578T): 2.61 µM
activity at 10 µM (NCI-H226 [4]; [10]): -22%
activity at 10 µM (HCT-116 [5]; [11]): 4.69%
activity at 10 µM (UACC-62 [6]; [12]): -96.9%
GI50 (UACC-257; UACC-257): 1.57 µM
GI50 (NCI-H23; NCI-H23): 2.34 µM
activity at 10 µM (UO-31; [13]): 78.9%
GI50 (SR): 1.39 µM
GI50 (HCT-116 [7]; HCT-116): 2.94 µM
GI50 (NCI-H226 [8]; NCI-H226): 4.41 µM
activity at 10 µM (NCI-H322M): 16.1%
GI50 (UACC-62 [9]; UACC-62): 1.53 µM
GI50 (SK-MEL-28; SK-MEL-28): 1.38 µM
GI50 (Prostate Cancer panel; read-out: GI50 Mean): 2.56 µM
GI50 (NCI-H460; NCI-H460): 2.71 µM
activity at 10 µM (K-562; K562, read-out: Growth percent): 7.48%
GI50 (DU-145; DU-145): 3.65 µM
GI50 (Leukemia panel; read-out: GI50 Mean): 1.22 µM
activity at 10 µM (HL-60(TB); [14]): -36.7%
GI50 (SK-OV-3; SK-OV-3): 2.28 µM
GI50 (RXF 393; RXF 393): 1.24 µM
activity at 10 µM (A549/ATCC; A549, read-out: Growth percent): 11.7%
activity at 10 µM (HOP-62; [15]): 9.52%
GI50 (SK-MEL-5; SK-MEL-5): 1.88 µM
activity at 10 µM (OVCAR-5; [16]): 5.84%
activity at 10 µM (M14; M14, read-out: Growth percent): -83.5%
activity at 10 µM (U251; [17]): -87.9%
GI50 (Ovarian Cancer panel; read-out: GI50 Mean): 11.4 µM
GI50 (HCT-15; HCT-15): 16.1 µM

CCC12C=CCN3CC[C@@]4(c5ccc(OC)cc5N(C)[C@H]4[C@@](O)(C(=O)OC)[C@@H]1OC(C)=O)[C@@H]32 (stereo partly shown) [compound 2, vindoline]
activity at 10 µM (NCI/ADR-RES): 110%
activity at 10 µM (SN12C): 96.1%
activity at 10 µM (MCF7 [2]; MCF7, read-out: Growth percent): 99%
activity at 10 µM (NCI-H226 [4]; [10]): 104%
activity at 10 µM (HCT-116 [5]; [11]): 104%
activity at 10 µM (UACC-62 [6]; [12]): 94.7%
activity at 10 µM (UO-31; [13]): 83.9%
activity at 10 µM (NCI-H322M): 97.8%
activity at 10 µM (K-562; K562, read-out: Growth percent): 103%
activity at 10 µM (HL-60(TB); [14]): 104%
activity at 10 µM (A549/ATCC; A549, read-out: Growth percent): 93.5%
activity at 10 µM (HOP-62; [15]): 92.2%
activity at 10 µM (OVCAR-5; [16]): 91.2%
activity at 10 µM (M14; M14, read-out: Growth percent): 104%
activity at 10 µM (U251; [17]): 99.4%

CC[C@]12C=CCN3CC[C@@]4(c5ccc(OC)cc5N(C)[C@H]4[C@@](O)(C(=O)OC)[C@@H]1OC(=O)CCC[P+](c1ccc(OC)cc1)(c1ccc(OC)cc1)c1ccc(OC)cc1)[C@@H]32 [9b]
GI50 (MCF7 [1]; MCF7, MCF7, Breast Cancer, five-dose, read-out: GI50): 0.383 µM
activity at 10 µM (NCI/ADR-RES; 10 μM, one-dose): 79.9%
activity at 10 µM (SN12C; 10 μM, one-dose): -93.4%
activity at 10 µM (MCF7 [2]; MCF7, 10 μM, one-dose, read-out: Growth percent): -83%
GI50 (CAKI-1; CAKI-1, Renal Cancer, five-dose, read-out: GI50): 13.7 µM
GI50 (HS 578T; HS 578T, Breast Cancer, five-dose, read-out: GI50): 1.18 µM
activity at 10 µM (NCI-H226 [4]; NCI-H226, 10 μM, one-dose, read-out: Growth percent): -80.3%
activity at 10 µM (HCT-116 [5]; HCT-116, 10 μM, one-dose, read-out: Growth percent): -68.8%
activity at 10 µM (UACC-62 [6]; UACC-62, 10 μM, one-dose, read-out: Growth percent): -97.1%
GI50 (UACC-257; UACC-257, UACC-257, Melanoma, five-dose, read-out: GI50): 0.646 µM
GI50 (NCI-H23; NCI-H23, Non-small Cell Lung Cancer, five-dose, read-out: GI50): 0.671 µM
activity at 10 µM (UO-31; UO-31, 10 μM, one-dose, read-out: Growth percent): -56.8%
GI50 (SR; Leukemia, five-dose, read-out: GI50): 0.389 µM
GI50 (HCT-116 [7]; HCT-116, Colon Cancer, five-dose, read-out: GI50): 0.712 µM
GI50 (NCI-H226 [8]; NCI-H226, Non-small Cell Lung Cancer, five-dose, read-out: GI50): 1.43 µM
activity at 10 µM (NCI-H322M; 10 μM, one-dose): -97.7%
GI50 (UACC-62 [9]; UACC-62, Melanoma, five-dose, read-out: GI50): 0.603 µM
GI50 (SK-MEL-28; SK-MEL-28, Melanoma, five-dose, read-out: GI50): 0.453 µM
GI50 (Prostate Cancer panel; mean over Prostate Cancer panel, read-out: Mean GI50): 0.71 µM
GI50 (NCI-H460; NCI-H460, Non-small Cell Lung Cancer, five-dose, read-out: GI50): 0.666 µM
activity at 10 µM (K-562; K562, K-562, 10 μM, one-dose, read-out: Growth percent): -1.75%
GI50 (DU-145; DU-145, Prostate Cancer, five-dose, read-out: GI50): 0.955 µM
GI50 (Leukemia panel; mean over Leukemia panel, read-out: Mean GI50): 0.55 µM
activity at 10 µM (HL-60(TB); HL-60(TB), 10 μM, one-dose, read-out: Growth percent): -39.6%
GI50 (SK-OV-3; SK-OV-3, Ovarian Cancer, five-dose, read-out: GI50): 1.02 µM
GI50 (RXF 393; RXF 393, Renal Cancer, five-dose, read-out: GI50): 0.482 µM
activity at 10 µM (A549/ATCC; A549/ATCC, 10 μM, one-dose, read-out: Growth percent): -91.4%
activity at 10 µM (HOP-62; HOP-62, 10 μM, one-dose, read-out: Growth percent): -81.5%
GI50 (SK-MEL-5; SK-MEL-5, Melanoma, five-dose, read-out: GI50): 1.55 µM
activity at 10 µM (OVCAR-5; OVCAR-5, 10 μM, one-dose, read-out: Growth percent): -96.5%
activity at 10 µM (M14; M14, 10 μM, one-dose, read-out: Growth percent): -88.4%
activity at 10 µM (U251; U-251, U251, 10 μM, one-dose, read-out: Growth percent): -93.7%
GI50 (Ovarian Cancer panel; mean over Ovarian Cancer panel, read-out: Mean GI50): 3.46 µM
GI50 (HCT-15; HCT-15, Colon Cancer, five-dose, read-out: GI50): 3.64 µM

CCC12C=CCN3CCC4(c5ccc(OC)cc5N(C)C4C(O)(C(=O)OC)C1OC(=O)CCC[P+](c1ccc(C)cc1)(c1ccc(C)cc1)c1ccc(C)cc1)C32 (stereo not shown) [9a]
GI50 (MCF7 [1]; MCF7): 0.281 µM
activity at 10 µM (NCI/ADR-RES): 18.1%
activity at 10 µM (SN12C): -88.1%
activity at 10 µM (MCF7 [2]; MCF7, read-out: Growth percent): -76.3%
GI50 (CAKI-1; CAKI-1): 1.87 µM
GI50 (HS 578T; Hs-578T): 0.344 µM
activity at 10 µM (NCI-H226 [4]; [10]): -77.4%
activity at 10 µM (HCT-116 [5]; [11]): -93.4%
activity at 10 µM (UACC-62 [6]; [12]): -96.8%
GI50 (UACC-257; UACC-257): 0.272 µM
GI50 (NCI-H23; NCI-H23): 0.303 µM
activity at 10 µM (UO-31; [13]): -97.4%
GI50 (SR): 0.281 µM
GI50 (HCT-116 [7]; HCT-116): 0.307 µM
GI50 (NCI-H226 [8]; NCI-H226): 0.521 µM
activity at 10 µM (NCI-H322M): -98.4%
GI50 (UACC-62 [9]; UACC-62): 0.275 µM
GI50 (SK-MEL-28; SK-MEL-28): 0.361 µM
GI50 (Prostate Cancer panel; read-out: Mean GI50): 0.38 µM
GI50 (NCI-H460; NCI-H460): 0.327 µM
activity at 10 µM (K-562; K562, read-out: Growth percent): -13.1%
GI50 (DU-145; DU-145): 0.457 µM
GI50 (Leukemia panel; read-out: Mean GI50): 0.26 µM
activity at 10 µM (HL-60(TB); [14]): -47.5%
GI50 (SK-OV-3; SK-OV-3): 0.29 µM
GI50 (RXF 393; RXF 393): 0.279 µM
activity at 10 µM (A549/ATCC; A549, read-out: Growth percent): -90.3%
activity at 10 µM (HOP-62; [15]): -81.6%
GI50 (SK-MEL-5; SK-MEL-5): 0.532 µM
activity at 10 µM (OVCAR-5; [16]): -95.9%
activity at 10 µM (M14; M14, read-out: Growth percent): -85.3%
activity at 10 µM (U251; [17]): -91.2%
GI50 (Ovarian Cancer panel; read-out: Mean GI50): 1.57 µM
GI50 (HCT-15; HCT-15): 1.62 µM
